Assay results: patent US20240408169A1 (priority 2023, published 2024)
Where two headings read alike, the source gives them in different places. *1 amine or outer side, *2 acyl side, *3 side chain or, on linkers, in order; H or OH if unused. Where a SMILES comes first, the peptide text is derived from it. Bridges are numbered along the chain shown (N, C = ends). [ ]: non-standard residue; d: D form. The star is where a group is joined. X138 = CN([C@@H](Cc1cc(Cl)ccc1-c1ccc(S(=O)(=O)N2CCCC2)cc1)C(=O)[*:2])[*:1]; X127 = CN([C@@H](Cc1cc(F)ccc1-c1cnn(S(=O)(=O)C2CC2)c1)C(=O)[*:2])[*:1]; X42 = CN([C@@H](Cc1cc(Cl)ccc1-c1cnn(S(=O)(=O)C2CC2)c1)C(=O)[*:2])[*:1]; X134 = CN([C@@H](Cc1cc(Cl)ccc1-c1cnc2[nH]c(O)cc2c1)C(=O)[*:2])[*:1]; X195 = CC(=O)Nc1ccc(-c2ccc(Cl)cc2C[C@@H](C(=O)[*:2])N(C)[*:1])cn1; X209 = CN([C@@H](Cc1cc(Cl)ccc1-c1cnc2nn(C)cc2c1)C(=O)[*:2])[*:1]; NMehhhLys(Me) = CN([C@@H](CCCCCCCN(C)[*:3])C(=O)[*:2])[*:1]; X174 = CN([C@@H](Cc1cc(Cl)cnc1-c1cnn(C)c1)C(=O)[*:2])[*:1]; X176 = CN([C@@H](Cc1cc(F)ccc1-c1cccnc1)C(=O)[*:2])[*:1]; NMe(hhhLys) = CN([C@@H](CCCCCCCN[*:3])C(=O)[*:2])[*:1]; NMe3Pal(2-OMe,5-Cl) = CN[C@@H](Cc1cc(Cl)cnc1OC)C(=O)O; Oxane2carbonyl(2R-CF3) = O=C([C@@]1(C(F)(F)F)CCCCO1)*; Cyclobutanecarbonyl(1-CF3) = O=C(C1(C(F)(F)F)CCC1)*; cBuCO(3,3-F2-1-CF3) = O=C(C1(C(F)(F)F)CC(F)(F)C1)*; X25 = CCOc1ncc(Cl)cc1C[C@@H](C(=O)[*:2])N(C)[*:1]; X161 = Cc1ccc(F)cc1C[C@@H](C(=O)[*:2])N(C)[*:1]; X4 = Cc1ccc(Cl)cc1C[C@@H](C(=O)[*:2])N(C)[*:1]; Pro(trans-4-F) = O=C(O)[C@@H]1C[C@@H](F)CN1; Pivaloyl(3,3,3-F3) = CC(C)(C(=O)*)C(F)(F)F; Gly(cPr) = N[C@H](C(=O)O)C1CC1

What was measured:
NCI-H1048 cells = test: MTT proliferation assay, NCI-H1048; assay type: cell-based; details: 5 days compound exposure, 1:3 serial dilution starting at 10 μM;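 also: Dose-response in 96-well plates over 8 or 10 concentration points, with exposure spanning 3-4 cell doublings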
CyclinB1/CDK1 = target: T1, CyclinB1/CDK1 (Homo sapiens, UniProt P14635); test: Fluorescence Polarization (FP) competitive binding assay, Cyclin B1/Cdk1;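 also: fluorescence polarization read after equilibration at room temperature, with IC50 taken from serially diluted dose-response curves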
T1 construct: purchased Eurofins, discovery 14-450

CyclinE1/CDK2 = target: T2, CyclinE1/CDK2 (Homo sapiens, UniProt P24864); test: Fluorescence Polarization (FP) competitive binding assay, Cyclin E1/Cdk2;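 also: readings taken after two-hour equilibration at room temperature in HEPES buffer with NaCl, DTT, NP-40 and BSA, IC50 fitted from eight-concentration serial dilution series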
T2 construct: purchased Eurofins, discovery 14-475

OVCAR3 cells = test: MTT proliferation assay, OVCAR3; assay type: cell-based; details: 5 days compound exposure, 1:3 serial dilution starting at 10 μM;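 also: compound given as an 8- or 10-point series, one day after plating, with exposure covering roughly 3-4 cell doublings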
CyclinA2/CDK2 = target: T3, CyclinA2/CDK2 (Homo sapiens, UniProt P20248); test: Fluorescence Polarization (FP) competitive binding assay, Cyclin A2/Cdk2;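 also: plates equilibrated two hours at room temperature before polarization reading, IC50 fitted from eight-concentration compound titration curves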
T3 construct: purchased CRELUX Protein Services

[1] = 10 nM Cyclin B1/Cdk1, 2 nM FAM probe; average of 2-3 independent experiments; read-out: Cyclin B FP IC50
[2] = 10 nM Cyclin E1/Cdk2, 2 nM FAM probe, average of 2-3 independent experiments, read-out: Cyclin E FP IC50
[3] = 8 nM Cyclin A2/Cdk2, 2 nM FAM probe, average of 2-3 independent experiments, read-out: Cyclin A FP IC50
[4] = read-out: Cyclin B FP IC50; 10 nM Cyclin B1/Cdk1, 2 nM FAM probe; average of 2-3 independent experiments
[5] = read-out: Cyclin A FP IC50, 8 nM Cyclin A2/Cdk2, 2 nM FAM probe, average of 2-3 independent experiments

Structure (SMILES) | GI50 (NCI-H1048 cells) [nM] | IC50 (CyclinB1/CDK1; [1]) [nM] | IC50 (CyclinE1/CDK2; [2]) [nM] | GI50 (OVCAR3 cells) [nM] | IC50 (CyclinA2/CDK2; [3]) [nM] | IC50 (CyclinB1/CDK1; [4]) [nM] | IC50 (CyclinE1/CDK2) [nM] | IC50 (CyclinA2/CDK2; [5]) [nM] | IC50 (CyclinA2/CDK2) [nM]
CC(C)C[C@@H]1NC(=O)[C@@H](N(C)C(=O)[C@@H](NC(=O)[C@@H]2C[C@@H](F)CN2C(=O)C2(C(F)(F)F)CCC2)C2CC2)CCCCCCCN(C)C(=O)[C@H](Cc2cc(Cl)cnc2-c2cnn(C)c2)N(C)C1=O [Example 247] ({Cyclobutanecarbonyl(1-CF3)}-[Pro(trans-4-F)][Gly(cPr)][NMehhhLys(Me)]L[X174]; lactam 3-C) | 50 | 20 | 310 | 40 | 20 |  |  |  | 
CC(C)C[C@@H]1NC(=O)[C@@H](N(C)C(=O)[C@@H](NC(=O)[C@@H]2C[C@@H](F)CN2C(=O)[C@@]2(C(F)(F)F)CCCCO2)C2CC2)CCCCCCCN(C)C(=O)[C@H](Cc2cc(Cl)cnc2-c2cnn(C)c2)N(C)C1=O [Example 248] ({Oxane2carbonyl(2R-CF3)}-[Pro(trans-4-F)][Gly(cPr)][NMehhhLys(Me)]L[X174]; lactam 3-C) | 40 |  |  | 20 |  | 20 | 100 | 20 | 
CC(C)C[C@@H]1NC(=O)[C@@H](N(C)C(=O)[C@@H](NC(=O)[C@@H]2C[C@@H](F)CN2C(=O)C2(C(F)(F)F)CC(F)(F)C2)C2CC2)CCCCCCCN(C)C(=O)[C@H](Cc2cc(Cl)ccc2-c2cnc3nn(C)cc3c2)N(C)C1=O [Example 249] ({cBuCO(3,3-F2-1-CF3)}-[Pro(trans-4-F)][Gly(cPr)][NMehhhLys(Me)]L[X209]; lactam 3-C) | 10 |  |  | 10 |  | 20 | 590 | 20 | 
CC(C)C[C@@H]1NC(=O)[C@@H](N(C)C(=O)[C@@H](NC(=O)[C@@H]2C[C@@H](F)CN2C(=O)C2(C(F)(F)F)CC(F)(F)C2)C2CC2)CCCCCCCN(C)C(=O)[C@H](Cc2cc(F)ccc2-c2cnn(S(=O)(=O)C3CC3)c2)N(C)C1=O [Example 252] ({cBuCO(3,3-F2-1-CF3)}-[Pro(trans-4-F)][Gly(cPr)][NMehhhLys(Me)]L[X127]; lactam 3-C) | 10 |  |  | 20 |  | 20 | 380 |  | 30
CC(C)C[C@@H]1NC(=O)[C@@H](N(C)C(=O)[C@@H](NC(=O)[C@@H]2C[C@@H](F)CN2C(=O)C2(C(F)(F)F)CC(F)(F)C2)C2CC2)CCCCCCCN(C)C(=O)[C@H](Cc2cc(Cl)ccc2-c2cnn(S(=O)(=O)C3CC3)c2)N(C)C1=O [Example 254] ({cBuCO(3,3-F2-1-CF3)}-[Pro(trans-4-F)][Gly(cPr)][NMehhhLys(Me)]L[X42]; lactam 3-C) | 20 | 20 | 970 | 20 | 30 |  |  |  | 
Cc1ccc(Cl)cc1C[C@H]1C(=O)N(C)CCCCCCC[C@H](N(C)C(=O)[C@@H](NC(=O)[C@@H]2C[C@@H](F)CN2C(=O)C2(C(F)(F)F)CC(F)(F)C2)C2CC2)C(=O)N[C@@H](CC(C)C)C(=O)N1C [Example 263] ({cBuCO(3,3-F2-1-CF3)}-[Pro(trans-4-F)][Gly(cPr)][NMehhhLys(Me)]L[X4]; lactam 3-C) | 30 | 20 | 200 | 40 | 30 |  |  |  | 
Cc1ccc(F)cc1C[C@H]1C(=O)NCCCCCCC[C@H](N(C)C(=O)[C@@H](NC(=O)[C@@H]2C[C@@H](F)CN2C(=O)C2(C(F)(F)F)CC(F)(F)C2)C2CC2)C(=O)N[C@@H](CC(C)C)C(=O)N1C [Example 264] ({cBuCO(3,3-F2-1-CF3)}-[Pro(trans-4-F)][Gly(cPr)][NMe(hhhLys)]L[X161]; lactam 3-C) | 40 | 20 | 290 | 30 | 90 |  |  |  | 
CC(=O)Nc1ccc(-c2ccc(Cl)cc2C[C@H]2C(=O)N(C)CCCCCCC[C@H](N(C)C(=O)[C@@H](NC(=O)[C@@H]3C[C@@H](F)CN3C(=O)C3(C(F)(F)F)CC(F)(F)C3)C3CC3)C(=O)N[C@@H](CC(C)C)C(=O)N2C)cn1 [Example 265] ({cBuCO(3,3-F2-1-CF3)}-[Pro(trans-4-F)][Gly(cPr)][NMehhhLys(Me)]L[X195]; lactam 3-C) | 10 | 20 | 640 | 20 | 20 |  |  |  | 
CC(C)C[C@@H]1NC(=O)[C@@H](N(C)C(=O)[C@@H](NC(=O)[C@@H]2C[C@@H](F)CN2C(=O)C2(C(F)(F)F)CC(F)(F)C2)C2CC2)CCCCCCCN(C)C(=O)[C@H](Cc2cc(Cl)ccc2-c2ccc(S(=O)(=O)N3CCCC3)cc2)N(C)C1=O [Example 266] ({cBuCO(3,3-F2-1-CF3)}-[Pro(trans-4-F)][Gly(cPr)][NMehhhLys(Me)]L[X138]; lactam 3-C) | 30 | 20 | 2220 | 50 | 20 |  |  |  | 
CC(=O)N1CC=C(c2ccc(Cl)cc2C[C@H]2C(=O)NCCCC=CCC[C@H](N(C)C(=O)[C@@H](NC(=O)[C@@H]3C[C@@H](F)CN3C(=O)C3(C(F)(F)F)CC(F)(F)C3)C3CC3)C(=O)N[C@@H](CC(C)C)C(=O)N2C)CC1 [Example 267] | 50 | 20 | 1950 | 40 | 20 |  |  |  | 
COc1ncc(Cl)cc1C[C@H]1C(=O)N(C)CCCCCCC[C@H](N(C)C(=O)[C@@H](NC(=O)[C@@H]2C[C@@H](F)CN2C(=O)C(C)(C)C(F)(F)F)C2CC2)C(=O)N[C@@H](CC(C)C)C(=O)N1C [Example 268] ({Pivaloyl(3,3,3-F3)}-[Pro(trans-4-F)][Gly(cPr)][NMehhhLys(Me)]L[NMe3Pal(2-OMe,5-Cl)]; lactam 3-C) | 20 | 20 | 100 | 10 | 60 |  |  |  | 
CCOc1ncc(Cl)cc1C[C@H]1C(=O)N(C)CCCCCCC[C@H](N(C)C(=O)[C@@H](NC(=O)[C@@H]2C[C@@H](F)CN2C(=O)C(C)(C)C(F)(F)F)C2CC2)C(=O)N[C@@H](CC(C)C)C(=O)N1C [Example 269] ({Pivaloyl(3,3,3-F3)}-[Pro(trans-4-F)][Gly(cPr)][NMehhhLys(Me)]L[X25]; lactam 3-C) | 30 | 20 | 100 | 30 | 60 |  |  |  | 
CC(C)C[C@@H]1NC(=O)[C@@H](N(C)C(=O)[C@@H](NC(=O)[C@@H]2C[C@@H](F)CN2C(=O)C2(C(F)(F)F)CC(F)(F)C2)C2CC2)CCCCCCCN(C)C(=O)[C@H](Cc2cc(F)ccc2-c2cccnc2)N(C)C1=O [Example 271] ({cBuCO(3,3-F2-1-CF3)}-[Pro(trans-4-F)][Gly(cPr)][NMehhhLys(Me)]L[X176]; lactam 3-C) | 10 | 20 | 240 | 10 | 30 |  |  |  | 
CC(C)C[C@@H]1NC(=O)[C@@H](N(C)C(=O)[C@@H](NC(=O)[C@@H]2C[C@@H](F)CN2C(=O)C2(C(F)(F)F)CC(F)(F)C2)C2CC2)CCCCCCCN(C)C(=O)[C@H](Cc2cc(Cl)ccc2-c2cnc3[nH]c(O)cc3c2)N(C)C1=O [Example 272] ({cBuCO(3,3-F2-1-CF3)}-[Pro(trans-4-F)][Gly(cPr)][NMehhhLys(Me)]L[X134]; lactam 3-C) | 90 | 20 | 1600 | 430 | 50 |  |  |  | 
CC(C)C[C@@H]1NC(=O)[C@@H](N(C)C(=O)[C@@H](NC(=O)[C@@H]2C[C@@H](F)CN2C(=O)C2(C(F)(F)F)CC(F)(F)C2)C2CC2)CCC=CCCCNC(=O)[C@H](Cc2cc(Cl)ccc2-c2cnn(S(C)(=O)=O)c2)N(C)C1=O [Example 273, (2S,4R)—N—((S)-2-(((3S,6S,9S)-3-(5-chloro-2-(1-(methylsulfonyl)-1H-pyrazol-4-yl)benzyl)-6-isobutyl-4-methyl-2,5,8-trioxo-1,4,7-triazacyclohexadec-12-en-9-yl)(methyl)amino)-1-cyclopropyl-2-oxoethyl)-1-(3,3-difluoro-1-(trifluoromethyl)cyclobutane-1-carbonyl)-4-fluoropyrrolidine-2-carboxamide] | 30 | 20 | 1940 | 40 | 50 |  |  |  | 
